Results on twelve molecules are retold here after article PMC6154706, “Inhibitory Effect of Triterpenoids from Panax ginseng on Coagulation Factor X” (Molecules : A Journal of Synthetic Chemistry and Natural …, 2017).

What is called pIC50 is the negative decadic logarithm of the IC50, by convention in mol/L.

One experiment relates to Platelet poor plasma. Nature of the experiment: Blood clotting time in vitro (APTT, PT, TT). The conditions noted are these: PT and TT tests, final concentration 0.05 mg/mL. It counts as biochemical, rats. The method, then: Rats were anaesthetized with 10% chloral hydrate (3 mL/kg). The blood obtained from the abdominal aorta was collected directly into citrated tubes containing 3.8% sodium citrate (1:9 (v/v)) and was used immediately after collection. Platelet poor plasma […] was prepared by centrifuging the blood at 3000 rpm for 20 min at 20 °C [24]. Plasma samples with jaundice, chylus, hemolysis and blood clot were excluded prior to the assays. Plasma mixtures were 90 μL of PRP with 10 μL of tested compounds (0.5 mg/mL, dissolved in DMSO). For PRP in the solvent group, the sample was 90 μL of PRP with 10 μL of DMSO. For PRP in the normal control group, the plasma was not-treated PRP sample. For PRP in the heparin group, the sample was 90 μL of PRP with 10 μL of heparin (0.1 mg/mL), which was used as the positive control drug.
Blood coagulation assays were carried out using a coagulation analyzer at the Blood Center clinical laboratory in the Second Hospital affiliated to Jilin University (Changchun, China). Measurements of APTT, PT and TT were performed according to the manufacturer’s recommended protocols. The anti-coagulant activity was expressed as clotting time ± standard deviation (S.D.). Briefly, for APTT assay, 50 μL of the plasma mixture was incubated at 37 °C for 60 s and the mixture was added to the APTT reagent (50 μL) and incubated at 37 °C for 15 min. Finally, APTT values were recorded. For the PT assay, 50 μL of the plasma mixture was incubated at 37 °C for 60 s and then added into the PT reagent (100 μL) prior to incubation at 37 °C for 15 min before the PT values were recorded. For the TT assay, 80 μL of the plasma mixture was incubated at 37 °C for 60 s before the addition of 80 μL of TT reagent for 100 s. TT values were determined by the coagulation analyzer.

Experiment [1] addresses T1, coagulation factor Xa (FXa) (Bos taurus, UniProt P00743).
T1 construct: purchased New England Biolabs (Hitchin, UK)
Nature of the experiment: FXa activity assay in vitro (chromogenic substrate method). The experiment is classed as biochemical. As for the experimental part:
10 µL of FXa (final concentration of 0.5 nM), 40 µL of Tris buffer (adjusted to pH 7.4 with HCl containing 0.3 M NaCl and 50 mM Tris) and 10 µL of test compounds were added to the well, respectively. The negative control was performed using the same mixed solutions except that the test compound was replaced with DMSO. […] After 15 min of incubation at 37 °C, FXa substrate (40 μL, final concentration of […]) was added and then was incubated 37 °C for 25 min [3]. The optical density (OD) values at 405 nm were evaluated by an automated microplate reader. […] Inhibition rate was calculated by the following formula: Anti-FXa activity = (V0 − Vi)/V0 [21]. The IC50 value was subsequently calculated by SPSS 19.0.

For a further experiment, the target named is T2, human FIIa (thrombin) (Homo sapiens, UniProt P00734).
T2 construct: purchased Hyphen BioMed (Paris, France)
Nature of the experiment: Thrombin inhibition in vitro (chromogenic substrate CS-01(38)). The note with it: pH 7.4, 37 °C, 405 nm. The experiment is classed as biochemical. As for the experimental part: The inhibition of thrombin was evaluated by human FIIa and chromogenic substrate CS-01(38) in 96-well microtiter plates at room temperature. Compounds 5, 13 and 18 as well as the positive reagent Ximelagatran were dissolved in DMSO to a concentration of 1mM and then serially diluted to a range of 10 μM to 100 μM, respectively. 8 μL of FIIa (3 NIH U/mL), 80 μL of Tris buffer (adjusted to pH 7.4 with HCl) containing 0.3 M NaCl and 50 mM Tris and 8 μL of test compounds were added to the well, respectively. The negative control was performed using the same mixed solutions except that tested compounds were replaced with DMSO. The positive control was performed using the same mixed solutions except that the test compounds were replaced with ximelagatran. After incubation at 37 °C for 15 min, 12 μL of FIIa substrate solution (4 mM) was added and then incubated at 37 °C for 25 min [3]. The anti-FIIa activity was measured at 405 nm using a microplate reader.

Another experiment deals with blood coagulation. The note with it: 0.05 mg/mL final concentration vs 0.1 mg/mL heparin; cited from earlier work.
The next experiment concerns FXa. Also noted: method as in PMID 24412029, PMID 22216842. The conditions noted are these: cited from earlier work.
The next experiment relates to thrombus. Further details: method as in PMID 24412029, PMID 22216842. The note with it: rat models, orally administered; cited from earlier work.
Setting [2] is: FXa 0.5 nM, pH 7.4, 37 °C, OD 405 nm, read-out: IC50 against coagulation factor Xa (FXa).

pIC50: −log10 of the molar value. Like-named read-outs stand apart in the source and are kept apart here.

T1 sequence (P00743 41-180): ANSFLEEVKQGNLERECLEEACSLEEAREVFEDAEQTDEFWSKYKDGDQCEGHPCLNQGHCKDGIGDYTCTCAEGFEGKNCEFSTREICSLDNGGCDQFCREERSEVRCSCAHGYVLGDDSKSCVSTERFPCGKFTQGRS
T1 sequence (P00743 234-492): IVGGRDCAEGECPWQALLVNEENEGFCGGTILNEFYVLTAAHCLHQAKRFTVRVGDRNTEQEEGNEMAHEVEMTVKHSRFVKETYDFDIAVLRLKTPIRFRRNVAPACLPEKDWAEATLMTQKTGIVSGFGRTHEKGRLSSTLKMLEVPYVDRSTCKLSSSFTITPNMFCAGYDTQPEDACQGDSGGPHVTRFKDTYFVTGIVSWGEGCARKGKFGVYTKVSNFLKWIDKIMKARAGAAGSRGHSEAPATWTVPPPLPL

In the case of 20(R)-Rg3, the “In vitro anti-coagulation activity versus normal control” value in the experiment with Platelet poor plasma is “insignificant anti-coagulation effects”.

In the case of `CC(C)=CCC[C@](C)(O[C@@H]1O[C@H](CO)[C@@H](O)[C@H](O)[C@H]1O)[C@H]1CC[C@]2(C)[C@@H]1[C@H](O)C[C@@H]1[C@@]3(C)CC[C@H](O)C(C)(C)[C@@H]3[C@@H](O)C[C@]12C` [F1, ginsenoside F1], the negative logarithm of the IC50 (pIC50) in experiment [1] (setting [2]) is 6.64. In addition, in the experiment with Platelet poor plasma, the “In vitro anti-coagulation activity versus normal control” value is “significant anti-coagulation activity”.

`CC(C)=CCC[C@](C)(O[C@@H]1O[C@H](CO)[C@@H](O)[C@H](O)[C@H]1O)[C@H]1CC[C@]2(C)[C@@H]1[C@H](O)C[C@@H]1[C@@]3(C)CC[C@H](O[C@@H]4O[C@H](CO)[C@@H](O)[C@H](O)[C@H]4O)C(C)(C)[C@@H]3CC[C@]12C` [F2, ginsenoside F2]: in experiment [1] (setting [2]), the pIC50 was 6.37. The “In vitro anti-coagulation activity versus normal control” value in the experiment on Platelet poor plasma is reported as “significant anti-coagulation activity”.

Take `CC(C)=CCCC(C)(O)C1CCC2(C)C1C(O)CC1C3(C)CCC(O)C(C)(C)C3CCC12C` (centres unmarked) [PPD, protopanaxdiol]: the negative-log IC50 (pIC50) in experiment [1] (setting [2]) is 6.47. In addition, the “In vitro anti-coagulation activity versus normal control” value in the experiment with Platelet poor plasma is listed as “significant anti-coagulation activity”.

In the case of `CC(C)=CCCC(C)(O)C1CCC2(C)C1C(O)CC1C3(C)CCC(O)C(C)(C)C3C(O)CC12C` (centres unmarked) [PPT, protopanaxtriol], the figures for the pIC50 (in experiment [1] (setting [2]); at human FIIa (thrombin)) were 6.85 and 4.09, respectively. Besides, the “In vitro anti-coagulation activity versus normal control” value in the experiment on Platelet poor plasma is given as “best bioactivity (p < 0.01)”.

Consider `CC(C)=CCC[C@](C)(O)[C@H]1CC[C@]2(C)[C@@H]1[C@H](O)C[C@@H]1[C@@]3(C)CC[C@H](O)C(C)(C)[C@@H]3[C@@H](O[C@@H]3O[C@H](CO)[C@@H](O)[C@H](O)[C@H]3O[C@@H]3O[C@H](CO)[C@@H](O)[C@H](O)[C@H]3O)C[C@]12C` [Rf, ginsenoside Rf], for which the negative-log IC50 (pIC50) in experiment [1] (setting [2]) was 5.99. The “In vitro anti-coagulation activity versus normal control” value with Platelet poor plasma is given as “insignificant anti-coagulation effects”.

With `CC(C)=CCC[C@](C)(O[C@@H]1O[C@H](CO)[C@@H](O)[C@H](O)[C@H]1O)[C@H]1CC[C@]2(C)[C@@H]1[C@H](O)C[C@@H]1[C@@]3(C)CC[C@H](O)C(C)(C)[C@@H]3[C@@H](O[C@@H]3O[C@H](CO)[C@@H](O)[C@H](O)[C@H]3O)C[C@]12C` [Rg1, ginsenoside Rg1], the pIC50 in experiment [1] (setting [2]) was 6.48. Moreover, in the experiment on Platelet poor plasma, the “In vitro anti-coagulation activity versus normal control” value is “significant anti-coagulation activity”. Moreover, the “Anti-coagulant activities in vitro compared to heparin” value in the experiment with blood coagulation is on record as “significantly better anti-coagulant activities”.

As for `CC(C)=CCC[C@](C)(O)[C@H]1CC[C@]2(C)[C@@H]1[C@H](O)C[C@@H]1[C@@]3(C)CC[C@H](O)C(C)(C)[C@@H]3[C@@H](O[C@@H]3O[C@H](CO)[C@@H](O)[C@H](O)[C@H]3O[C@@H]3O[C@@H](C)[C@H](O)[C@@H](O)[C@H]3O)C[C@]12C` [Rg2, ginsenoside Rg2], the negative logarithm of the IC50 (pIC50) is 6.87 in experiment [1] (setting [2]) and 4.09 on human FIIa (thrombin). In addition, the “In vitro anti-coagulation activity versus normal control” value with Platelet poor plasma was “best bioactivity (p < 0.01)”. For the same molecule, the “Anti-coagulant activities in vitro compared to heparin” value in the experiment on blood coagulation was “significantly better anti-coagulant activities”.

`CC(C)=CCC[C@](C)(O)[C@H]1CC[C@]2(C)[C@@H]1[C@H](O)C[C@@H]1[C@@]3(C)CC[C@H](O)C(C)(C)[C@@H]3[C@@H](O[C@@H]3O[C@H](CO)[C@@H](O)[C@H](O)[C@H]3O)C[C@]12C` [Rh1, ginsenoside Rh1] showed a pIC50 in experiment [1] of 6.63. In addition, in the experiment on Platelet poor plasma, the “In vitro anti-coagulation activity versus normal control” value is “significant anti-coagulation activity”.

`CC(C)=CCC[C@](C)(O)[C@H]1CC[C@]2(C)[C@@H]1[C@H](O)C[C@@H]1[C@@]3(C)CC[C@H](O[C@@H]4O[C@H](CO)[C@@H](O)[C@H](O)[C@H]4O)C(C)(C)[C@@H]3CC[C@]12C` [Rh2, ginsenoside Rh2] gave a pIC50 in experiment [1] of 6.46. Besides, the “In vitro anti-coagulation activity versus normal control” value in the experiment on Platelet poor plasma is reported as “significant anti-coagulation activity”.

`CC1(C)[C@@H](O)CC[C@]2(C)[C@H]3C(=O)C=C4[C@@H]5C[C@@](C)(C(=O)O)CC[C@]5(C)CC[C@@]4(C)[C@]3(C)CC[C@@H]12` [glycyrrhetinic acid]: in the experiment on FXa, the “Inhibition of FXa activity in vitro” value was “significantly inhibit FXa activity in vitro with specificity”. In addition, the Thrombus weight entry in the experiment on thrombus is “reduce thrombus weight”.

With ginsenoside Rg3, the “In vitro anti-coagulation activity versus normal control” value with Platelet poor plasma is on record as “best bioactivity (p < 0.01)”.
